From patent publication US9573908B2, “Broad spectrum pro-quorum-sensing molecules as inhibitors of virulence in vibrios” (priority 2012, dated 2017)

Tests used:
[1] = test system: V. cholerae ΔcqsA ΔluxS double synthase mutant; type: cell-based; conditions: for induction of bioluminescence / QS activation: ΔcqsA ΔluxS double synthase mutant (wild type LuxO)
vpsR = assay: Transcription of the σ54-dependent gene vpsR; type: cell-based, Vibrio cholerae; conditions: in the presence of compound
[2] = test system: V. cholerae luxO^D47E strain; type: cell-based, Vibrio cholerae; conditions: for induction of bioluminescence / QS activation: luxO^D47E mutant
E. coli NtrC = target: T1, E. coli NtrC (Escherichia coli, UniProt P0AFB8, D54E); assay: biochemical; conditions: read-out: inhibition of ATPase activity of purified E. coli NtrC
T1 construct: His6 (N); made in house; host or cells: E. coli BL21 (DE3), strain WN2181 (pET28B-NtrC D54E)
T1 sequence (P0AFB8 1-469 D54E): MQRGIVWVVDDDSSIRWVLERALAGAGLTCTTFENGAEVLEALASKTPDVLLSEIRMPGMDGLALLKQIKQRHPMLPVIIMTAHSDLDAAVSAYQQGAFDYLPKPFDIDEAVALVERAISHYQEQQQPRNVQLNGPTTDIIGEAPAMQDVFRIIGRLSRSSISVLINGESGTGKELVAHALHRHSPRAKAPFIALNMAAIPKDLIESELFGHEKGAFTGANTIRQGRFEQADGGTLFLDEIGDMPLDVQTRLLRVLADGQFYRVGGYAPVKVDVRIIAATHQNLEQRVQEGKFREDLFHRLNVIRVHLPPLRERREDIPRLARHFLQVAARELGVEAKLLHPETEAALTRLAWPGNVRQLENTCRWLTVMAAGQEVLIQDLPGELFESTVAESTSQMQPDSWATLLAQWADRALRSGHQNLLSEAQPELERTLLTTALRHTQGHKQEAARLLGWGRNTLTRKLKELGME

LuxO D47E = LuxO D47E (Vibrio cholerae serotype O1, UniProt Q9KT84, D47E); assay: Coupled-enzyme ATPase assay, LuxO D47E; type: biochemical; conditions: for inhibition of ATP hydrolysis: FIG. 5A-C; for mode of inhibition: Lineweaver-Burk plots, parallel slopes
[3] = test system: qrr4 expression in V. cholerae luxO^D47E strain; type: cell-based, Vibrio cholerae; conditions: 50 μM compound
[4] = test system: V. parahaemolyticus luxO* mutant (LM4476); assay: Colony opacity of V. parahaemolyticus; type: cell-based, Vibrio parahaemolyticus; conditions: 500 μM in medium
[5] = test system: V. cholerae luxO^D47E strain; type: cell-based, Vibrio cholerae; conditions: 0-200 μM compound 12, Western blot
[6] = test system: V. parahaemolyticus LM4476 (luxO*) on cultured HeLa cells; assay: V. parahaemolyticus cytotoxicity assay on HeLa cells (LDH release); conditions: 500 μM, luxO* mutant, MOI 10
[7] = test system: V. parahaemolyticus luxO* strain (LM4476); type: cell-based; conditions: 200 and 500 μM compound 12, Western blot
LuxO D47E/I211F = LuxO D47E/I211F (Vibrio cholerae serotype O1, UniProt Q9KT84, D47E/I197F); assay: Coupled-enzyme ATPase assay, LuxO D47E/I211F; type: biochemical; conditions: 100 μM Compound 12, 2.5 mM ATP (FIG. 11)

| SMILES | EC50 (potency) of QS activation ([1]; dose-response curves, FIG. 2C, comparison in words) | induction of bioluminescence / QS activation [1] | change in transcription of vpsR (vpsR) | induction of bioluminescence / QS activation [2] | inhibition at 250 µM (E. coli NtrC) | inhibition of ATP hydrolysis (LuxO D47E) | mode of inhibition (LuxO D47E) | decrease of GFP production from qrr4-gfp transcriptional fusion [3] | colony morphology [4] | enhancement in potency ([2]; EC50 from FIG. 3, tert-butyl carbinol side chain versus the series) | HapR level [5] | TcpA level [5] | average cytotoxicity (HeLa cell lysis) ([6]; 2 to 3 hours post-infection) | cytotoxicity (HeLa cell lysis) ([6]; 4-hour post-infection) | VopD production and secretion [7] | inhibition of ATPase activity of LuxO D47E/I211F (LuxO D47E/I211F) |
| --- | --- | --- | --- | --- | --- | --- | --- | --- | --- | --- | --- | --- | --- | --- | --- | --- |
| CC(C)COC(=O)CSc1n[nH]c(=O)[nH]c1=O [Compound 11, Isobutyl 2-((3,5-dioxo-2,3,4,5-tetrahydro-1,2,4-triazin-6-yl)thio)acetate] | highest potency | activate QS | did not change significantly | activate QS | ~10% | inhibit ATP hydrolysis in a dose-dependent manner | uncompetitive inhibitors | ~3 fold | switch from translucent to opaque | – | – | – | – | – | – | – |
| CC(C)(C)COC(=O)CSc1n[nH]c(=O)[nH]c1=O [Compound 12, Neopentyl 2-((3,5-dioxo-2,3,4,5-tetrahydro-1,2,4-triazin-6-yl)thio)acetate] | – | activate QS | – | activate QS | ~10% | inhibit ATP hydrolysis in a dose-dependent manner | uncompetitive inhibitors | – | switch from translucent to opaque | 3 fold | increased | decreased | ~30% | ~100% | decreased production and secretion | not inhibited |
